Measurements published in patent publication US10011610B2, “Selective BACE1 inhibitors” (Eli Lilly and Company, priority 2015, dated 2018).
Where two headings read alike, the source gives them in different places.

Key:
human BACE1(1-460):Fc = biological target: T1, human BACE1(1-460):Fc (Homo sapiens, UniProt P56817); experiment: BACE1 FRET Assay; type: biochemical; details: purified recombinant huBACE1:Fc, mean±standard deviation of the mean, n=4
T1 construct: made in house; host or cells: HEK293 (transient transfection, purified from conditioned media by Protein A)
Experimental: (§1) To assess selectivity of BACE1 over BACE2, the test compound is evaluated in FRET and immunoassay detection base enzymatic assays using specific substrates for BACE1 and BACE2 as described below. For in vitro enzymatic and cellular assays, the test compound is prepared in DMSO to make up a 10 mM stock solution. The stock solution is serially diluted in DMSO to obtain a ten-point dilution curve with final compound concentrations ranging from 10 μM to 0.05 nM in a 96-well round-bottom plate before conducting the in vitro enzymatic and whole cell assays.
(§2) Human BACE1 (accession number: AF190725) and human BACE2 (accession number: AF 204944) are cloned from total brain cDNA by RT-PCR. The nucleotide sequences corresponding to amino acid sequences #1 to 460 are inserted into the cDNA encoding human IgG1 (Fc) polypeptide (Vassar et al., Science, 286, 735-742 (1999)). […]
(§3) Conditioned media of HEK293 cells transiently transfected with huBACE1:Fc or huBACE2:Fc cDNA are collected. […] The purity of final product is assessed by electrophoresis in 4-20% Tris-Glycine SDS-PAGE. […]
Serial dilutions of the test compound are prepared as described above. […] The RFU of the mixture at time 0 is recorded at excitation wavelength 355 nm and emission wavelength 460 nm, after brief mixing on a plate shaker. […] The RFU at the end of incubation is recorded with the same excitation and emission settings used at time 0. […]

[1] = tested on: BACE1 activity in SH-SY5YAPP695Wt cells; experiment: SH-SY5YAPP695Wt Whole Cell Assay (Abeta 1-40 and 1-42 ELISA); type: cell-based; details: Homo sapiens, 24 hours incubation, mean±standard deviation of the mean, n=4
Experimental: as §1
The routine whole cell assay for the measurement of inhibition of BACE1 activity utilizes the human neuroblastoma cell line SH-SY5Y (ATCC Accession No. CRL2266) stably expressing a human APP695Wt cDNA. Cells are routinely used up to passage number 6 and then discarded.
SH-SY5YAPP695Wt cells are plated in 96 well tissue culture plates at 5.0×10^4 cells/well in 200 μL culture media (50% MEM/EBSS and Ham's F12, lx each sodium pyruvate, non-essential amino acids and NaHCO3 containing 10% FBS). […]
At the end of the incubation, conditioned media are analyzed for evidence of beta-secretase activity by analysis of Abeta peptides 1-40 and 1-42 by specific sandwich ELISAs. […]

[2] = tested on: Abeta 1-x peptide levels in brain; experiment: In Vivo Inhibition of Beta-Secretase (brain Abeta 1-x in PDAPP mice); details: p<0.01; for reduction of Abeta 1-x peptide levels in brain hippocampus: young female PDAPP mice; for reduction of Abeta 1-x levels in brain cortical tissue: PDAPP mice, compared to vehicle-treated mice three hours after dosing
Text: Several animal models, including mouse, guinea pig, dog, and monkey, may be used to screen for inhibition of beta-secretase activity in vivo following compound treatment. Animals used in this invention can be wild type, transgenic, or gene knockout animals. For example, the PDAPP mouse model, prepared as described in Games et al., Nature 373, 523-527 (1995), and other non-transgenic or gene knockout animals are useful to analyze in vivo inhibition of Abeta and sAPPbeta production in the presence of inhibitory compounds. Generally, 2 month old PDAPP mice, gene knockout mice or non-transgenic animals are administered compound formulated in vehicles, such as corn oil, beta-cyclodextran, phosphate buffers, PHARMASOLVE®, or other suitable vehicles via oral, subcutaneous, intra-venous, feeding, or other route of administration. 1 to 24 hours following the administration of compound, animals are sacrificed, and brains are removed for analysis of Abeta 1-x. “Abeta 1-x” as used herein refers to the sum of Abeta species that begin with residue 1 and end with a C-terminus greater than residue 28. This detects the majority of Abeta species and is often called “total Abeta”. Total Abeta peptides (Abeta 1-x) levels are measured by a sandwich ELISA, using monoclonal 266 as a capture antibody and biotinylated 3D6 as reporting antibody. (See May, et al., Journal of Neuroscience, 31, 16507-16516 (2011)).
For acute studies, compound or appropriate vehicle is administered and animals are sacrificed at about 3 hours after dosing. Brain tissue, is obtained from selected animals and analyzed for the presence of Abeta 1-x. After chronic dosing brain tissues of older APP transgenic animals may also be analyzed for the amount of beta-amyloid plaques following compound treatment.
For example, a 0.1, 0.3, and 1 mg/kg oral dose of Example 1, to young female PDAPP mice reduced Abeta 1-x peptide levels in brain hippocampus by 32%, 40%, and 55% (all values p<0.01), respectively.

human BACE2 (1-460):Fc = biological target: T2, human BACE2 (1-460):Fc (Homo sapiens, UniProt Q9Y5Z0); experiment: BACE2 MBP-C125Swe Assay; type: biochemical
T2 construct: made in house; host or cells: HEK293 (transient transfection, purified from conditioned media by Protein A)
T2 sequence (Q9Y5Z0 21-460): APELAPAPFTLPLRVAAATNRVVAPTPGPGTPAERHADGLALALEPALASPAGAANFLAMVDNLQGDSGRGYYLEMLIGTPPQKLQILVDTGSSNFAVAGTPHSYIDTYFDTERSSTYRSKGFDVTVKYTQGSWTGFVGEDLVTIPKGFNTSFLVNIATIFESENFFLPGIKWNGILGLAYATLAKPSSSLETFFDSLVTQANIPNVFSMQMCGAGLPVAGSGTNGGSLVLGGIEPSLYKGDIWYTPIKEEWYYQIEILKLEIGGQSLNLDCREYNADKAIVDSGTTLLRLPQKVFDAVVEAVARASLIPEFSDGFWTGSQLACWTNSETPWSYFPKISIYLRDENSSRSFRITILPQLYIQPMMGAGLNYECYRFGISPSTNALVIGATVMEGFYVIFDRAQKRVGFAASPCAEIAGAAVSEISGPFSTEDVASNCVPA
Experimental: as §1
as §2, with “(1999)). This fusion protein of BACE1(1-460) or BACE2(1-460) and human Fc, named huBACE1:Fc and huBACE2:Fc respectively, are constructed in the pJB02 vector.” for “(1999)).”
as §3
10 point serial dilutions of test compounds are prepared in the appropriate range. […] The amount of product is measured by ELISA using MBP-C26swe standard. […]

T1 sequence (P56817 22-460): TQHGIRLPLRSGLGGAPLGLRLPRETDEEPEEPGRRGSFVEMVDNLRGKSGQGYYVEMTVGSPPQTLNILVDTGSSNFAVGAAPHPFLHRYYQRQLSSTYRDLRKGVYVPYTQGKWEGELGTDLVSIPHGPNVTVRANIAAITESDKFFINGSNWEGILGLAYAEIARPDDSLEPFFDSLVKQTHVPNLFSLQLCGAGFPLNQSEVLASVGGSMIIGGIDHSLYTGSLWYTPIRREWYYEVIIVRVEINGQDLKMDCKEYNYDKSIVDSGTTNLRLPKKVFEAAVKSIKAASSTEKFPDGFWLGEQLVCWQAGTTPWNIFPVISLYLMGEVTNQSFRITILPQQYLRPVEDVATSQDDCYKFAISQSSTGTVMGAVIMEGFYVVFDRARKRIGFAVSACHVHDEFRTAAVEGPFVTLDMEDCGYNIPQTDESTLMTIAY

## CC(F)(F)[C@H]1OC[C@]2(c3cc(NC(=O)c4ccc(C#N)cn4)ccc3F)N=C(N)SC[C@H]12 [Example 1, N-[3-[(4aS,5S,7aS)-2-Amino-5-(1,1-difluoroethyl)-4,4a,5,7-tetrahydrofuro[3,4-d][1,3]thiazin-7a-yl]-4-fluoro-phenyl]-5-cyano-pyridine-2-carboxamide]
Human BACE1(1-460):Fc
  IC50: 0.509 nM
[1]; read-out: IC50 for SH-SY5YAPP695Wt A-beta (1-40) ELISA
  IC50: 0.157 nM
[1]; read-out: IC50 for SH-SY5YAPP695Wt A-beta (1-42) ELISA
  IC50: 0.177 nM
[2]; 0.1 mg/kg oral dose
  reduction of Abeta 1-x peptide levels in brain hippocampus: 32%
[2]; 0.1 mg/kg
  reduction of Abeta 1-x levels in brain cortical tissue: 38%
[2]; 0.3 mg/kg oral dose
  reduction of Abeta 1-x peptide levels in brain hippocampus: 40%
[2]; 0.3 mg/kg
  reduction of Abeta 1-x levels in brain cortical tissue: 50%
[2]; 1 mg/kg oral dose
  reduction of Abeta 1-x peptide levels in brain hippocampus: 55%
[2]; 1 mg/kg
  reduction of Abeta 1-x levels in brain cortical tissue: 67%
Human BACE2 (1-460):Fc; MBP-C125Swe substrate, ELISA detection, mean±standard deviation of the mean, n=6
  IC50: 17.6 nM
Human BACE2 (1-460):Fc; selectivity for BACE1 over BACE2
  ratio of BACE1 (FRET IC50 enzyme assay) to BACE2 (MBP-C125Swe cell assay): approximately 35 fold
